Structures are written as SMILES.

One test deals with BRD4(49-170) bromodomain (Homo sapiens (Human), UniProt O60885). The test is described as follows: BRD4 AlphaScreen Assay. Conditions: binding to biotin-H4(1-21) Ac-K5/8/12/16 peptide. In outline:
(§1)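 IC50 values derived by variable-slope dose-response fit between negative and DMSO control signals. AlphaScreen signal reports bromodomain association with an H4(1-21) peptide acetylated at K5, K8, K12 and K16.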
For orientation: Alpha assays give light when donor and acceptor beads are brought close together.

Test [1] concerns the target GST-CBP(1081-1197) bromodomain (Homo sapiens (Human), UniProt Q92793). The test can be described thus: CBP AlphaScreen Assay. The following applies: binding to biotin-H4(1-21) Ac-K5/8/12/16 peptide. A digest of the protocol: as §1

Sequence of GST-CBP(1081-1197) bromodomain (Q92793 1081-1197): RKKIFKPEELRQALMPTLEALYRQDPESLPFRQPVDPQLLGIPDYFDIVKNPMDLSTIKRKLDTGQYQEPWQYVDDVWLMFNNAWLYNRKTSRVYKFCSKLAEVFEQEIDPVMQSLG

As for `CNC(=O)N1CCn2c(C3CCC(F)(F)CC3)nc(-c3cccc4cc(C5CCOCC5)ncc34)c2C1` [Example 84, 3-(4,4-difluorocyclohexyl)-N-methyl-1-(3-(tetrahydro-2H-pyran-4-yl)isoquinolin-8-yl)-5,6-dihydroimidazo[1,5-a]pyrazine-7(8H)-carboxamide], the IC50 turned out to be 12100 nM at BRD4(49-170) bromodomain and 4 nM in test [1].
Take `CNC(=O)N1CCn2c(C3CCC(F)(F)CC3)nc(-c3cccc4nc(-c5cnn(C)c5)c(C#N)cc34)c2C1` [Example 82, 1-(3-cyano-2-(1-methyl-1H-pyrazol-4-yl)quinolin-5-yl)-3-(4,4-difluorocyclohexyl)-N-methyl-5,6-dihydroimidazo[1,5-a]pyrazine-7(8H)-carboxamide]: the values for the IC50 (at BRD4(49-170) bromodomain; in test [1]) were 17900 nM and 3 nM, respectively.
On the same counts, the results for `CC(=O)N1CCn2c(C3CCC3)nc(-c3ccc4c(c3)c(-c3cnn(C)c3)nn4C)c2C1` [Example 46, 1-(3-cyclobutyl-1-(1-methyl-3-(1-methyl-1H-pyrazol-4-yl)-1H-indazol-5-yl)-5,6-dihydroimidazo[1,5-a]pyrazin-7(8H)-yl)ethan-1-one] are over 10000 nM and 52 nM.
On the same counts, the results for `CC(=O)N1CCn2c(C3CC3)nc(N3CCCc4cc(-c5cnn(Cc6ccccn6)c5)ccc43)c2C1` [Example 116, 1-(3-cyclopropyl-1-(6-(1-(pyridin-2-ylmethyl)-1H-pyrazol-4-yl)-3,4-dihydroquinolin-1(2H)-yl)-5,6-dihydroimidazo[1,5-a]pyrazin-7(8H)-yl)ethan-1-one] are over 25000 nM and 1280 nM.
On the same counts, the results for `CNC(=O)N1CCn2c(C3CCNCC3)nc(-c3ccc4c(c3)c(-c3cnn(C)c3)nn4C)c2C1` [Example 52, N-methyl-1-(1-methyl-3-(1-methyl-1H-pyrazol-4-yl)-1H-indazol-5-yl)-3-(piperidin-4-yl)-5,6-dihydroimidazo[1,5-a]pyrazine-7(8H)-carboxamide] are over 10000 nM and 20 nM.
Take `CNC(=O)N1CCn2c(C3CC3)nc(-c3cccc4nc(-c5cnn(C)c5)c(C(F)F)cc34)c2C1` [Example 34, 3-Cyclopropyl-1-(3-(difluoromethyl)-2-(1-methyl-1H-pyrazol-4-yl)quinolin-5-yl)-N-methyl-5,6-dihydroimidazo[1,5-a]pyrazine-7(8H)-carboxamide]: the IC50 is 17300 nM at BRD4(49-170) bromodomain and 37 nM in test [1].
Regarding `CC(=O)N1CCn2c(C3CCOC3)nc(-c3ccc4c(c3)c(-c3cnn(C)c3)nn4C)c2C1` (centres unmarked) [Example 45, 1-(1-(1-methyl-3-(1-methyl-1H-pyrazol-4-yl)-1H-indazol-5-yl)-3-(tetrahydrofuran-3-yl)-5,6-dihydroimidazo[1,5-a]pyrazin-7(8H)-yl)ethan-1-one], the IC50 at BRD4(49-170) bromodomain stood at 6290 nM; in test [1] it was 124 nM.
On the same counts, the results for `CC(=O)N1CCn2c(C3CC3)nc(-c3ccc4c(c3)c(-c3cnn(C)c3)nn4C)c2C1` [Example 1, 1-(3-cyclopropyl-1-(1-methyl-3-(1-methyl-1H-pyrazol-4-yl)-1H-indazol-5-yl)-5,6-dihydroimidazo[1,5-a]pyrazin-7(8H)-yl)ethan-1-one] are over 10000 nM and 47 nM.
For `CNC(=O)N1CCn2c(C(C)C)nc(-c3ccc4c(c3)c(-c3cnn(C)c3)nn4C)c2C1` [Example 50, 3-isopropyl-N-methyl-1-(1-methyl-3-(1-methyl-1H-pyrazol-4-yl)-1H-indazol-5-yl)-5,6-dihydroimidazo[1,5-a]pyrazine-7(8H)-carboxamide] the same measures were over 10000 nM and 12 nM.
Turning to `CNC(=O)N1CCn2c(C3CCOCC3)nc(-c3c(F)ccc4cc(C5CCOCC5)ncc34)c2C1` [Example 83, 1-(7-fluoro-3-(tetrahydro-2H-pyran-4-yl)isoquinolin-8-yl)-N-methyl-3-(tetrahydro-2H-pyran-4-yl)-5,6-dihydroimidazo[1,5-a]pyrazine-7(8H)-carboxamide], the IC50 stood at 19400 nM on BRD4(49-170) bromodomain and 16 nM in test [1].
On the same counts, the results for `CC(=O)N1CCn2c(C3CC3)nc(-c3ccc4c(cnn4C)c3)c2C1` [Example 43, 1-(3-cyclopropyl-1-(1-methyl-1H-indazol-5-yl)-5,6-dihydroimidazol[1,5-a]pyrazin-7(8H)-yl)ethan-1-one] are over 25000 nM and 3190 nM.
On the same counts, the results for `CC(=O)N1CCn2c(C3CC3)nc(N3CCCc4cc(-c5ccncc5)ccc43)c2C1` [Example 114, 1-(3-cyclopropyl-1-(6-(pyridin-4-yl)-3,4-dihydroquinolin-1(2H)-yl)-5,6-dihydroimidazo[1,5-a]pyrazin-7(8H)-yl)ethan-1-one] are over 25000 nM and 615 nM.
For `CC(=O)N1CCn2c(N3CCOCC3)nc(-c3ccc4c(c3)c(-c3cnn(C)c3)nn4C)c2C1` [Example 16, 1-(1-(1-Methyl-3-(1-methyl-1H-pyrazol-4-yl)-1H-indazol-5-yl)-3-morpho-lino-5,6-dihydroimidazo[1,5-a]pyrazin-7(8H)-yl)ethanone] the same measures were over 25000 nM and 392 nM.
Take `CNC(=O)N1CCn2c(C3CCOCC3)nc(-c3c(F)ccc4cc(-c5cnc(C)s5)ncc34)c2C1` [Example 89, 1-(7-fluoro-3-(2-methylthiazol-5-yl)isoquinolin-8-yl)-N-methyl-3-(tetrahydro-2H-pyran-4-yl)-5,6-dihydroimidazo[1,5-a]pyrazine-7(8H)-carboxamide]: the values for the half-inhibitory concentration (IC50) (on BRD4(49-170) bromodomain; in test [1]) were 6840 nM and 2 nM, respectively.
Consider `CNC(=O)N1CCn2c(C3CCC(F)(F)CC3)nc(-c3c(F)ccc4cc(C5CCOCC5)ncc34)c2C1` [Example 90, 3-(4,4-difluorocyclohexyl)-1-(7-fluoro-3-(tetrahydro-2H-pyran-4-yl)isoquinolin-8-yl)-N-methyl-5,6-dihydroimidazo[1,5-a]pyrazine-7(8H)-carboxamide], for which the figures for the IC50 (at BRD4(49-170) bromodomain; in test [1]) were 10200 nM and 4 nM, respectively.
On the same counts, the results for `CNC(=O)N1CCn2c(C3CC3)nc(-c3cccc4nc(-c5cnn(C)c5)c(C(F)(F)F)cc34)c2C1` [Example 62, 3-cyclopropyl-N-methyl-1-(2-(1-methyl-1H-pyrazol-4-yl)-3-(trifluoromethyl)quinolin-5-yl)-5,6-dihydroimidazo[1,5-a]pyrazine-7(8H)-carboxamide] are 13500 nM and 5 nM.
`CNC(=O)N1CCn2c(C3CC(F)(F)C3)nc(-c3c(F)ccc4cc(-c5cn(C)nc5C)ncc34)c2C1` [Example 77, 3-(3,3-difluorocyclobutyl)-1-(3-(1,3-dimethyl-1H-pyrazol-4-yl)-7-fluoroisoquinolin-8-yl)-N-methyl-5,6-dihydroimidazo[1,5-a]pyrazine-7(8H)-carboxamide]: the IC50 at BRD4(49-170) bromodomain is over 25000 nM; in test [1], 45 nM.
Regarding `CNC(=O)N1CCn2cnc(-c3ccc4c(c3)c(-c3cnn(C)c3)nn4C)c2C1` [Example 11, N-Methyl-1-(1-methyl-3-(1-methyl-1H-pyrazol-4-yl)-1H-indazol-5-yl)-5,6-dihydroimidazo[1,5-a]pyrazine-7(8H)-carboxamide], the values for the IC50 (at BRD4(49-170) bromodomain; in test [1]) were over 10000 nM and 26 nM, respectively.
Consider `CNC(=O)N1CCn2c(C3CCOC3)nc(-c3ccc4c(c3)c(-c3cnn(C)c3)nn4C)c2C1` (centres unmarked) [Example 6, N-Methyl-1-(1-methyl-3-(1-methyl-1H-pyrazol-4-yl)-1H-indazol-5-yl)-3-(tetrahydrofuran-3-yl)-5,6-dihydroimidazo[1,5-a]pyrazine-7(8H)-carboxamide], for which the IC50 on BRD4(49-170) bromodomain turned out to be 8210 nM; in test [1], 24 nM.
In the case of `CC(=O)N1CCn2c(C3CC3)nc(N3CCCc4cc(-c5cnn(C6CCC6)c5)ccc43)c2C1` [Example 119, 1-(1-(6-(1-cyclobutyl-1H-pyrazol-4-yl)-3,4-dihydroquinolin-1(2H)-yl)-3-cyclopropyl-5,6-dihydroimidazo[1,5-a]pyrazin-7(8H)-yl)ethan-1-one], the IC50 was over 25000 nM on BRD4(49-170) bromodomain and 313 nM in test [1].
For `CNC(=O)N1CCn2c(C3CC3)nc(-c3cccc4nc(-c5cnn(C)c5)c(C#N)cc34)c2C1` [Example 19, 1-(3-Cyano-2-(1-methyl-1H-pyrazol-4-yl)quinolin-5-yl)-3-cyclopropyl-N-methyl-5,6-dihydroimidazo[1,5-a]pyrazine-7(8H)-carboxamide] the same measures were over 25000 nM and 5 nM.
On to `CNC(=O)c1cc(-c2ccc3c(c2)CCCN3c2nc(C3CC3)n3c2CN(C(C)=O)CC3)ccn1` [Example 117, 4-(1-(7-acetyl-3-cyclopropyl-5,6,7,8-tetrahydroimidazo[1,5-a]pyrazin-1-yl)-1,2,3,4-tetrahydroquinolin-6-yl)-N-methylpicolinamide], for which the IC50 on BRD4(49-170) bromodomain was over 25000 nM; in test [1] it was 739 nM.
On the same counts, the results for `CNC(=O)N1CCn2c(C)nc(-c3ccc4c(c3)c(-c3cnn(C)c3)nn4C)c2C1` [Example 48, N,3-dimethyl-1-(1-methyl-3-(1-methyl-1H-pyrazol-4-yl)-1H-indazol-5-yl)-5,6-dihydroimidazo[1,5-a]pyrazine-7(8H)-carboxamide] are over 10000 nM and 36 nM.
For `CNC(=O)N1CCn2c(C3CCOCC3)nc(-c3cccc4cc(-c5cnc(C)s5)ncc34)c2C1` [Example 95, N-methyl-1-(3-(2-methylthiazol-5-yl)isoquinolin-8-yl)-3-(tetrahydro-2H-pyran-4-yl)-5,6-dihydroimidazo[1,5-a]pyrazine-7(8H)-carboxamide] the same measures were 3480 nM and 1 nM.
On the same counts, the results for `CNC(=O)N1CCn2c(C3CCN(C(C)=O)CC3)nc(-c3ccc4c(c3)c(-c3cnn(C)c3)nn4C)c2C1` [Example 55, 3-(1-acetylpiperidin-4-yl)-N-methyl-1-(1-methyl-3-(1-methyl-1H-pyrazol-4-yl)-1H-indazol-5-yl)-5,6-dihydroimidazo[1,5-a]pyrazine-7(8H)-carboxamide] are over 10000 nM and 18 nM.

Usually IC50 stands for the point on the concentration scale where inhibition reaches its midpoint. Read a low IC50 as greater potency in that assay.
